Among the data in US20260234139A1, “PGDH INHIBITORS AND METHODS OF MAKING AND USING” (Epirium Bio Inc., priority 2023, published 2026) are IC50 and EC50 values, retold here.

For one test, the target named is T1, 15-PGDH/HPGD (Homo sapiens, UniProt P15428).
T1 construct: purchased R&D System 5660-DH
T1 sequence (P15428 1-266): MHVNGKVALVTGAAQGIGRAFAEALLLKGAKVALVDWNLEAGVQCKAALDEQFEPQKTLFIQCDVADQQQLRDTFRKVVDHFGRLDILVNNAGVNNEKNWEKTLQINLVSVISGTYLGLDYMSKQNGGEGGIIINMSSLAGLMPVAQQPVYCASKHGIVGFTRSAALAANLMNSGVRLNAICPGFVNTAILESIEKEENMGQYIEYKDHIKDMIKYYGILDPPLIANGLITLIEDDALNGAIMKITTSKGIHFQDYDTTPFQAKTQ
Description: hPGDH inhibitor screening biochemical assay. Conditions: 10 nM enzyme, 15 μM Prostaglandin E2, 0.25 mM NAD, fluorescence ex/em 340/485 nm. In a few lines: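 Recombinant 15-PGDH (10 nM) preincubated with compound 10 min at 37° C, then 15 μM PGE2 and 0.25 mM NAD⁺ added for 10 min at room temperature in 50 mM Tris-HCl pH 7.5, 0.01% Tween 20. NADH fluorescence at ex/em 340/485 nm; 10-point dose response.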

A further test concerns A549. Put plainly: A549 EC50 (cell assay, method not described). The test is classed as cell-based. To be noted: Homo sapiens, A549, A549.

One may read the IC50 as the concentration that gives 50% inhibition. A high value points to weaker potency. As usually defined, the EC50 is the concentration needed to bring the measured effect to its halfway point. Lower therefore signals a more potent agent.

As for `O[C@H](COC1CCC1)c1cnc2c(cnn2-c2ccc(-c3nnn[nH]3)cc2)c1` [Compound 79A], the concentration for half-maximal inhibition (IC50) at 15-PGDH/HPGD is less than 100 nM. In the test with A549, this compound had an EC50 of 100 to 1000 nM.
For the compound `C[C@@H](OC1CCC1)[C@H](O)c1cnc2c(cnn2-c2ccc(C(=O)O)cc2)c1` [Compound 108A], the IC50 against 15-PGDH/HPGD is less than 100 nM. In addition, the EC50 in the test on A549 is less than 100 nM.
Regarding `C[C@H](OC1CCC1)[C@@H](O)c1cnc2c(cnn2-c2ccc(C(=O)O)cc2)c1` [Compound 108D], at 15-PGDH/HPGD, the IC50 was less than 100 nM. Further, the EC50 in the test on A549 was in the range of 100 to 1000 nM.
`C[C@H]1C[C@H](OC[C@H](O)c2cnc3c(cnn3-c3ccc(C(=O)O)cc3)c2)C1` [Compound 127C] yielded an IC50 at 15-PGDH/HPGD of 100 to 1000 nM. In the test on A549, this compound registered an EC50 of no less than 1000 nM.
On 15-PGDH/HPGD, `CCCC(F)(F)[C@H](O)c1cnc2c(ccn2-c2cccc(-c3nnc[nH]3)c2)c1` [Compound 4B] registered an IC50 of less than 100 nM. Also, the EC50 with A549 is less than 100 nM.
The compound `CCOC(C)(C)[C@H](O)c1cnc2c(cnn2-c2ccc(C(=O)O)cc2)c1` [Compound 53A] returned an IC50 at 15-PGDH/HPGD of 100 to 1000 nM. Moreover, the EC50 in the test on A549 is 100 to 1000 nM.
For `COC1([C@@H](O)c2cnc3c(cnn3-c3cccc(-c4nnc[nH]4)c3)c2)CC1` [Compound 59A], on 15-PGDH/HPGD, the IC50 is less than 100 nM. Besides, the EC50 with A549 fell in the range of 100 to 1000 nM.
Regarding `O[C@@H](c1cnc2c(cnn2-c2cccc(-c3nnc[nH]3)c2)c1)C1(OCC(F)F)CC1` [Compound 73B], the half-inhibitory concentration (IC50) against 15-PGDH/HPGD is no less than 1000 nM. Further, the EC50 in the test with A549 was no less than 1000 nM.
For the compound `CCOC1([C@@H](O)c2cnc3c(cnn3-c3ccc(C(=O)O)cc3)c2)CC1` [Compound 58B], the 50% inhibitory concentration (IC50) at 15-PGDH/HPGD is less than 100 nM. In addition, the EC50 in the test with A549 was 100 to 1000 nM.
The corresponding values for `CC1(OC[C@H](O)c2cnc3c(cnn3-c3ccc(C(=O)O)cc3)c2)CC1` [Compound 92A] are less than 100 nM and no less than 1000 nM.
The compound `CCCC[C@H](O)c1cnc2c(ccn2-c2cc(Cl)cc(-c3nnc[nH]3)c2)c1` [Compound 17B] had an IC50 against 15-PGDH/HPGD of less than 100 nM. The EC50 in the test on A549 was less than 100 nM.
With `CCOC1([C@H](O)c2cnc3c(cnn3-c3ccc(C(=O)O)cc3)c2)CC1` [Compound 58A], the IC50 on 15-PGDH/HPGD was no less than 1000 nM. Moreover, in the test on A549, the EC50 is no less than 1000 nM.
Regarding `O=C(O)c1ccc(-n2ncc3cc([C@H](O)COCC4CC4)cnc32)cc1` [Compound 107B], the IC50 at 15-PGDH/HPGD was less than 100 nM. The same compound yielded an EC50 in the test with A549 of no less than 1000 nM.
As to `CCOC[C@H](O)c1cnc2c(cnn2-c2cccc(-c3nnc[nH]3)c2)c1` [Compound 23A], the half-maximal inhibitory concentration (IC50) against 15-PGDH/HPGD is less than 100 nM. Also, in the test with A549, the EC50 lay within 100 to 1000 nM.
As for `CC1(COC[C@H](O)c2cnc3c(cnn3-c3ccc(C(=O)O)cc3)c2)CC1` [Compound 106A], on 15-PGDH/HPGD, the IC50 is less than 100 nM. The compound further yielded an EC50 with A549 of less than 100 nM.
`CC(C)CC[C@@H](O)c1cnc2c(ccn2-c2ccc(C(=O)O)cc2)n1` [Compound 40B] registered a half-inhibitory concentration (IC50) on 15-PGDH/HPGD of less than 100 nM. Besides, the EC50 in the test with A549 is less than 100 nM.
Consider `O[C@H](c1cnc2c(ccn2-c2cccc(-c3nnc[nH]3)c2)c1)C1CCC1` [Compound 10A], for which the IC50 at 15-PGDH/HPGD was less than 100 nM. Moreover, in the test on A549, the EC50 was less than 100 nM.
On 15-PGDH/HPGD, `CC1(OC[C@@H](O)c2cnc3c(cnn3-c3ccc(C(=O)O)cc3)c2)CCC1` [Compound 90B] gave a concentration for half-maximal inhibition (IC50) of less than 100 nM. In the test with A549, this compound came in with an EC50 of less than 100 nM.
The compound `CC(C)OC[C@@H](O)c1cnc2c(cnn2-c2ccc(OCC(=O)O)c(F)c2)c1` [Compound 74A] displayed an IC50 on 15-PGDH/HPGD of less than 100 nM. In the test on A549, this compound displayed an EC50 of 100 to 1000 nM.
The compound `CC(C)C[C@H](O)[C@H](O)c1cnc2c(ccn2-c2cccc(-c3nnc[nH]3)c2)c1` [Compound 3C, (1R,2S)-4-methyl-1-[1-[3-(4H-1,2,4-triazol-3-yl)phenyl]pyrrolo[2,3-b]pyridin-5-yl]pentane-1,2-diol] showed an IC50 against 15-PGDH/HPGD of less than 100 nM. This compound yielded an EC50 in the test on A549 of 100 to 1000 nM.
`O[C@@H](c1cnc2c(ccn2-c2cccc(-c3nnc[nH]3)c2)c1)C1CCC1` [Compound 10B] showed an IC50 on 15-PGDH/HPGD of less than 100 nM. Moreover, the EC50 in the test with A549 was less than 100 nM.
As to `C[C@H]1C[C@@H](OC[C@@H](O)c2cnc3c(cnn3-c3ccc(C(=O)O)cc3)c2)C1` [Compound 127B], the IC50 against 15-PGDH/HPGD is less than 100 nM. For the same compound, in the test with A549, the EC50 is less than 100 nM.
